Patent US8835134B2, “Cycloastragenol monoglucoside, preparation, pharmaceutical composition and application thereof” (Tianjin Institute of Pharmaceutical Research, priority 2007, dated 2014)

Test system: isolated rat heart
Test: Cardiotonic effects on isolated heart (Langendorff perfusion)
Set-up: species or system Wistar rats
Method: Wistar rats (250-280 g) were anesthetized with chloral hydrate (360 mg/kg intraperitoneally) and heparinized with sodium heparin (1 mg) via sublingual vein. After opening the chest cavity, the hearts were quickly excised and immersed in cold Krebs-Henseleit (K-H) solution. Hearts were retrogradely perfused with 74 centimeters of water pressure via the aorta in a Langendorff apparatus with K-H solution, which was bubbled with a mixture of 95% O2 and 5% CO2. The suture fixed on cardiac apex was connected to a tension transducer which was connected to a polygraph (RM6300, Nihon Kohden, Japan) and a data acquisition workstation (MP150, BIOPAC Systems, USA) to a computer running Acknowledge (version 3.7.1).

SMILES: CC(C)(O)[C@@H]1CC[C@](C)([C@H]2[C@@H](O)C[C@@]3(C)[C@@H]4C[C@H](O[C@@H]5O[C@H](CO)[C@@H](O)[C@H](O)[C@H]5O)[C@H]5C(C)(C)[C@@H](O[C@@H]6OC[C@@H](O)[C@H](O)[C@H]6O)CC[C@@]56C[C@@]46CC[C@]23C)O1 [astragaloside IV, reference compound]
- Contractility Variation (%) (1 × 10^−7 mol/L): 24.56 ± 12.44^++ %
- Contractility after administration (1 × 10^−7 mol/L): 1.73 ± 0.42 g
- Contractility before administration (1 × 10^−7 mol/L): 1.42 ± 0.41 g
- HR Variation (%) (1 × 10^−7 mol/L): −24 ± 17^+ %
- HR after administration (1 × 10^−7 mol/L): 117 ± 52 bpm
- HR before administration (1 × 10^−7 mol/L): 151 ± 60 bpm
- peak derivatives of contractility Variation (%) (1 × 10^−7 mol/L): 21 ± 19^+ %
- peak derivatives of contractility Δ T/S after administration (1 × 10^−7 mol/L): 78 ± 14 g/s
- peak derivatives of contractility Δ T/S before administration (1 × 10^−7 mol/L): 66 ± 13 g/s
- peak derivatives of diastolic force Variation (%) (1 × 10^−7 mol/L): 15 ± 9^+ %
- peak derivatives of diastolic force Δ T/S after administration (1 × 10^−7 mol/L): -50 ± 11 g/s
- peak derivatives of diastolic force Δ T/S before administration (1 × 10^−7 mol/L): -44 ± 11 g/s
- Contractility Variation (%) (1 × 10^−8 mol/L): 6.00 ± 9.25%
- Contractility after administration (1 × 10^−8 mol/L): 1.94 ± 0.43 g
- Contractility before administration (1 × 10^−8 mol/L): 1.83 ± 0.38 g
- HR Variation (%) (1 × 10^−8 mol/L): −6 ± 5%
- HR after administration (1 × 10^−8 mol/L): 144 ± 34 bpm
- HR before administration (1 × 10^−8 mol/L): 152 ± 30 bpm
- peak derivatives of contractility Variation (%) (1 × 10^−8 mol/L): 6 ± 15%
- peak derivatives of contractility Δ T/S after administration (1 × 10^−8 mol/L): 81 ± 19 g/s
- peak derivatives of contractility Δ T/S before administration (1 × 10^−8 mol/L): 76 ± 18 g/s
- peak derivatives of diastolic force Variation (%) (1 × 10^−8 mol/L): 8 ± 8%
- peak derivatives of diastolic force Δ T/S after administration (1 × 10^−8 mol/L): -46 ± 9 g/s
- peak derivatives of diastolic force Δ T/S before administration (1 × 10^−8 mol/L): -43 ± 10 g/s
- Contractility Variation (%) (3 × 10^−8 mol/L): 6.98 ± 8.82%
- Contractility after administration (3 × 10^−8 mol/L): 1.88 ± 0.40 g
- Contractility before administration (3 × 10^−8 mol/L): 1.78 ± 0.46 g
- HR Variation (%) (3 × 10^−8 mol/L): −14 ± 13%
- HR after administration (3 × 10^−8 mol/L): 145 ± 65 bpm
- HR before administration (3 × 10^−8 mol/L): 167 ± 64 bpm
- peak derivatives of contractility Variation (%) (3 × 10^−8 mol/L): 12 ± 7^+ %
- peak derivatives of contractility Δ T/S after administration (3 × 10^−8 mol/L): 76 ± 18 g/s
- peak derivatives of contractility Δ T/S before administration (3 × 10^−8 mol/L): 69 ± 19 g/s
- peak derivatives of diastolic force Variation (%) (3 × 10^−8 mol/L): 10 ± 11%
- peak derivatives of diastolic force Δ T/S after administration (3 × 10^−8 mol/L): -45 ± 12 g/s
- peak derivatives of diastolic force Δ T/S before administration (3 × 10^−8 mol/L): -41 ± 12 g/s
- Contractility (isolated rat heart): increased
- Heart rate (isolated rat heart): decreased
- Peak derivatives of contractility (isolated rat heart): increased
- Peak derivatives of diastolic force (isolated rat heart): increased

SMILES: CC(C)(O)[C@@H]1CC[C@](C)([C@H]2[C@@H](O)C[C@@]3(C)C4C[C@H](OC5OC(CO)C(O)C(O)C5O)C5C(C)(C)[C@@H](O)CC[C@@]56C[C@@]46CC[C@]23C)O1 (stereo partly drawn) [CMG, Cycloastragenol-6-O-β-D-glucoside]
- Contractility Variation (%) (1 × 10^−7 mol/L): 17.08 ± 7.19^++ %
- Contractility after administration (1 × 10^−7 mol/L): 2.06 ± 0.59 g
- Contractility before administration (1 × 10^−7 mol/L): 1.77 ± 0.52 g
- HR Variation (%) (1 × 10^−7 mol/L): −38 ± 22^++ %
- HR after administration (1 × 10^−7 mol/L): 92 ± 35 bpm
- HR before administration (1 × 10^−7 mol/L): 145 ± 16 bpm
- peak derivatives of contractility Variation (%) (1 × 10^−7 mol/L): 18 ± 6^++ %
- peak derivatives of contractility Δ T/S after administration (1 × 10^−7 mol/L): 86 ± 13 g/s
- peak derivatives of contractility Δ T/S before administration (1 × 10^−7 mol/L): 73 ± 11 g/s
- peak derivatives of diastolic force Variation (%) (1 × 10^−7 mol/L): 14 ± 8^+ %
- peak derivatives of diastolic force Δ T/S after administration (1 × 10^−7 mol/L): -51 ± 14 g/s
- peak derivatives of diastolic force Δ T/S before administration (1 × 10^−7 mol/L): -45 ± 14 g/s
- Contractility Variation (%) (1 × 10^−8 mol/L): 7.72 ± 8.03%
- Contractility after administration (1 × 10^−8 mol/L): 1.97 ± 0.61 g
- Contractility before administration (1 × 10^−8 mol/L): 1.81 ± 0.49 g
- HR Variation (%) (1 × 10^−8 mol/L): −17 ± 18%
- HR after administration (1 × 10^−8 mol/L): 124 ± 25 bpm
- HR before administration (1 × 10^−8 mol/L): 156 ± 51 bpm
- peak derivatives of contractility Variation (%) (1 × 10^−8 mol/L): 6 ± 8%
- peak derivatives of contractility Δ T/S after administration (1 × 10^−8 mol/L): 76 ± 19 g/s
- peak derivatives of contractility Δ T/S before administration (1 × 10^−8 mol/L): 71 ± 15 g/s
- peak derivatives of diastolic force Variation (%) (1 × 10^−8 mol/L): 7 ± 9%
- peak derivatives of diastolic force Δ T/S after administration (1 × 10^−8 mol/L): -47 ± 16 g/s
- peak derivatives of diastolic force Δ T/S before administration (1 × 10^−8 mol/L): -44 ± 15 g/s
- Contractility Variation (%) (3 × 10^−8 mol/L): 5.84 ± 2.92%
- Contractility after administration (3 × 10^−8 mol/L): 1.92 ± 0.72 g
- Contractility before administration (3 × 10^−8 mol/L): 1.83 ± 0.72 g
- HR Variation (%) (3 × 10^−8 mol/L): −13 ± 12%
- HR after administration (3 × 10^−8 mol/L): 128 ± 23 bpm
- HR before administration (3 × 10^−8 mol/L): 150 ± 41 bpm
- peak derivatives of contractility Variation (%) (3 × 10^−8 mol/L): 11 ± 9^+ %
- peak derivatives of contractility Δ T/S after administration (3 × 10^−8 mol/L): 77 ± 16 g/s
- peak derivatives of contractility Δ T/S before administration (3 × 10^−8 mol/L): 70 ± 16 g/s
- peak derivatives of diastolic force Variation (%) (3 × 10^−8 mol/L): 10 ± 8%
- peak derivatives of diastolic force Δ T/S after administration (3 × 10^−8 mol/L): -51 ± 18 g/s
- peak derivatives of diastolic force Δ T/S before administration (3 × 10^−8 mol/L): -46 ± 15 g/s
- Contractility (isolated rat heart): increased
- Heart rate (isolated rat heart): decreased
- Peak derivatives of contractility (isolated rat heart): increased
- Peak derivatives of diastolic force (isolated rat heart): increased
- cardiotonic effect (conclusion) (isolated rat heart): exhibited cardiotonic effects
